Data reported in patent publication US20210283261A1, “Compositions and Methods for Treating ALK-Mediated Cancer” (ICAHN SCHOOL OF MEDICINE AT MOUNT SINAI, priority 2017, published 2021).

Tests used:
Assay type in all cases: cell-based
ALK fusion protein = target: T1, ALK fusion protein (Homo sapiens, UniProt Q9UM73); test: Western blot of ALK fusion protein levels in NCI-H3122 cells; details: for effect on ALK fusion protein levels, concentration dependence: NCI-H3122 cells, 0, 50, 100, 200, 400 and 800 nM; for effect on ALK fusion protein levels, concentration dependence / significantly reduced ALK fusion protein levels (degraders vs negative controls): 16 h; for Dmax at 0.5 µM: NCI-H3122, NCI-H3122 cells, read-out: ALK fusion protein degradation, NCI-H3122 (500 nM)
T1 construct: endogenous in cells; host or cells: NCI-H3122; the other entry of the earlier key: EML4 (Q9HC35, Echinoderm microtubule-associated protein-like 4)

NCI-H3122 cells = test: Cell viability assay in NCI-H3122 cells; details: 3 days
Description: SU-DHL-1, NCI-H3122 and NCI-H2228 cells were cultured in RPMI-1640 medium supplemented with 10% fetal bovine serum, 50 μg/mL penicillin and streptomycin. Cells were cultured in a 37° C. incubator with 5% CO2.
(§1) SU-DHL-1 and NCI-3122 cells were treated with DMSO or indicated serial dilutions of compounds for 3 days. Data were analyzed using the GraphPad Prism.

ALK = test: Characterization of ALK degraders in ALCL and NSCLC cells (summary); details: summary statement
Text: Specific exemplary ALK degraders/disruptors were characterized in various different anaplastic large cell lymphoma (ALCL) cells and non-small cell lung cancer (NSCLC) cells (Examples 4-19, FIGS. 1-18). […] This efficacy in suppressing ALK expression and ALK activity correlated with efficacy in inhibiting cancer cell proliferation.

NPM-ALK fusion protein = target: T2, NPM-ALK fusion protein (Homo sapiens, UniProt Q9UM73); test: Western blot of NPM-ALK fusion protein levels in SU-DHL-1 cells; details: for effect on ALK fusion protein levels, concentration dependence: SU-DHL-1 cells, 0, 10, 20, 40, 80 and 160 nM; for rescue of induced ALK fusion protein degradation by MG-132 and MLN4924 / significantly reduced ALK fusion protein levels (degraders vs negative controls): SU-DHL-1 cells; for rescue of induced ALK fusion protein degradation by MG-132 and MLN4924: 2 h pre-treatment, then 100 nM compound for 6 h
T2 construct: endogenous in cells; host or cells: SU-DHL-1; the other entry of the earlier key: NPM1 (P06748, Nucleophosmin)
Method in brief: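 SU-DHL-1 cells treated with DMSO or compound serial dilutions for 16 h, or at 30 nM or 100 nM for varying times. NPM-ALK and phospho-ALK (Tyr1507) levels measured by Western blot and normalized to GAPDH.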

SU-DHL-1 cells = test: Cell viability assay in SU-DHL-1 cells; details: 3 days
Description: SU-DHL-1 cells were seeded in 96-well plates at a density of 1×10^4 cells per well, in triplicate. Treated cells with DMSO or indicated serial dilutions of compounds for 2.5 days. Cell growth/survival was measured by using the CellTiter-Glo luminescent cell viability assay following the manufacturer's instructions (Promega) or CCK8 cell viability assay (Sigma). Data was analyzed by using the GraphPad Prism software, Error bars represent ±SD for triplicate experiments.
SU-DHL-1 cells were seeded in 96-well plates at a density of 1×10^4 cells per well, in triplicate. Treated cells with DMSO or indicated serial dilutions of compounds for 2.5 days. Cell growth/survival was measured by using the CellTiter-Glo luminescent cell viability assay. Data was analyzed by using the GraphPad Prism software, Error bars represent ±SD for triplicate experiments (left panel).
SU-DHL-1 cells were seeded in 96-well plates at a density of 5000 cells per well, in triplicate. The cells were treated with DMSO or indicated serial dilutions of compounds for 3 days. Cell growth was measured using the CellTiter-Glo luminescent cell viability assay. Data were analyzed using the GraphPad Prism.
as §1

[1] = target: T3, EML4-ALK v3 fusion protein (Homo sapiens, UniProt Q9UM73); test: Western blot of EML4-ALK v3 fusion protein levels in NCI-H2228 cells; details: NCI-H2228 cells, 1, 3, 10, 30 or 100 nM, 16 h
T3 construct: endogenous in cells; host or cells: NCI-H2228
Description: Cells were cultured in a 37° C. incubator with 5% CO2.
Cells were washed with cold PBS once and lysed in 1× Laemmli loading buffer directly. […] Membrane was blocked in 5% milk in Tris-buffered saline and Tween 20 (TBST) for 1 h at room temperature, followed by incubation with a primary antibody overnight at 4° C., and a horseradish peroxidase (HRP)-conjugated secondary antibody for 1 h at room temperature. The membrane was imaged by a ChemiDoc MP imaging system (BIO-RAD). Antibodies against GAPDH (abeam), Phospho-ALK (Tyr1507), ALK (Cell Signaling Technology), Tubulin (Santa Cruz) were purchased commercially.
Cells were 70% confluent and treated with DMSO or indicated serial dilutions of compounds for 16 h. The EML4-ALK fusion protein levels were determined by Western blot and normalized against GPADH (right panel).

T2 sequence (Q9UM73 with tags, fused parts or gaps): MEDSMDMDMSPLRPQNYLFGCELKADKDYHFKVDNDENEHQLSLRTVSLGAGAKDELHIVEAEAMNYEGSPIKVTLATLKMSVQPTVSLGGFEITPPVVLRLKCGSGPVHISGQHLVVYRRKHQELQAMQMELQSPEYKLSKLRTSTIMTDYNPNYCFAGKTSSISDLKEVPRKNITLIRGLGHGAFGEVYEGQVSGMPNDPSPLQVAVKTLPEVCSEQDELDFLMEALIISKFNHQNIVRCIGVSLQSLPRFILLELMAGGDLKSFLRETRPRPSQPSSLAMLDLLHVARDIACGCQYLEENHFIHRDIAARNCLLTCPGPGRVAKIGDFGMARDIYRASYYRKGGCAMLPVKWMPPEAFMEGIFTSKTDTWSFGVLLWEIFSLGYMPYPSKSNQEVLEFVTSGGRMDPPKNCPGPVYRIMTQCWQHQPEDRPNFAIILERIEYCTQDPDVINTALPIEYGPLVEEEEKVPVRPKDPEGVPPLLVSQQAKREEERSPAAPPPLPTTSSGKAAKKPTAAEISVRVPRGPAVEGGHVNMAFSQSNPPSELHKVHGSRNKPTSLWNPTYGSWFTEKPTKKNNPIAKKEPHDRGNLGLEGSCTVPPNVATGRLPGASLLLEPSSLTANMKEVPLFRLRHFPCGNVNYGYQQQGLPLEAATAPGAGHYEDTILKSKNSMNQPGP
T1 sequence (Q9UM73 with tags, fused parts or gaps): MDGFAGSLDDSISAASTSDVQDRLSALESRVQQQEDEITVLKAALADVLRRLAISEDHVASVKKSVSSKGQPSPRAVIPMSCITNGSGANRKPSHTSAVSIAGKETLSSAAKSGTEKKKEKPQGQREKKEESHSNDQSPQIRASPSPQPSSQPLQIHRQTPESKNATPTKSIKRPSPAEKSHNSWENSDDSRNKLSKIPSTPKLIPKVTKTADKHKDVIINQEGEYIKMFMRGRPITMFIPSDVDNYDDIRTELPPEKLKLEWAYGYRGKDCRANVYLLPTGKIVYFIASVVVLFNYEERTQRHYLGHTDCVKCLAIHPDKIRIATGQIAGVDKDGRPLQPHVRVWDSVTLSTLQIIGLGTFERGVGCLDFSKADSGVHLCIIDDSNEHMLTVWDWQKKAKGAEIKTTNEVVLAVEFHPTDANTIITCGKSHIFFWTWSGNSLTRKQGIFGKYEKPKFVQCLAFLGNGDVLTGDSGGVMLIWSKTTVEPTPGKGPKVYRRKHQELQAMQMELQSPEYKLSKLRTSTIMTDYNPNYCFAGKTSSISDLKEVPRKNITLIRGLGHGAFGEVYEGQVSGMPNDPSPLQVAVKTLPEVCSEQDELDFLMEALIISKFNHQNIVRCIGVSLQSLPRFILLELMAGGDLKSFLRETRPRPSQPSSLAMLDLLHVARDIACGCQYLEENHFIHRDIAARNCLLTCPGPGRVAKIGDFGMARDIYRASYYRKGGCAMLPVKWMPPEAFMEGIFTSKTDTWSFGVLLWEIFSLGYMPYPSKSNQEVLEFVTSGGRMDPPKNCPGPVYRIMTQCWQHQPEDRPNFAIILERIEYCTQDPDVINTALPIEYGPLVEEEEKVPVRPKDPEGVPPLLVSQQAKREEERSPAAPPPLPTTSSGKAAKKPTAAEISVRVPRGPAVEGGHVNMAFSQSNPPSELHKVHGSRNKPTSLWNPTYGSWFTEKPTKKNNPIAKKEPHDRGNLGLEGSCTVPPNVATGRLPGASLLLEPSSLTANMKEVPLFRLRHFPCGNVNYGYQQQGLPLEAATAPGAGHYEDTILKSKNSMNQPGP
T3 sequence (Q9UM73 1058-1620 limits assumed): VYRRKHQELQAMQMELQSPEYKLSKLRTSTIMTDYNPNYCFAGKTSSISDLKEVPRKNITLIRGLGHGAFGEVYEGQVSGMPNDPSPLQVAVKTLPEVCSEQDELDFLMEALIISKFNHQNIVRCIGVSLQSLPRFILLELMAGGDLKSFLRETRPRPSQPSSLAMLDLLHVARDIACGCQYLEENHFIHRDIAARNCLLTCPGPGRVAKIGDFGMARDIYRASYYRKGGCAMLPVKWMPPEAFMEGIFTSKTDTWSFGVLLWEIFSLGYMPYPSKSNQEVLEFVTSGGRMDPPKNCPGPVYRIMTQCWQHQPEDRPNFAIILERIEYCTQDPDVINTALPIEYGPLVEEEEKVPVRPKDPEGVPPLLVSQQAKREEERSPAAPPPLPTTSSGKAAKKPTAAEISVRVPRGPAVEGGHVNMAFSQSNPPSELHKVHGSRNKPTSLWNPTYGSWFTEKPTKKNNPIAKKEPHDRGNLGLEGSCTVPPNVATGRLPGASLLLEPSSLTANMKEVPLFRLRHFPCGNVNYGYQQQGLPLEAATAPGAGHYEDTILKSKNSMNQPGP

Row | SMILES | effect on ALK fusion protein levels, concentration dependence (ALK fusion protein) | ALK fusion protein degradation, NCI-H3122 (500 nM) (ALK fusion protein; NCI-H3122 cells, 500 nM, Western blot) | significantly reduced ALK fusion protein levels (degraders vs negative controls) (ALK fusion protein; NCI-H3122 cells) | inhibition of cell viability (NCI-H3122 cells) | suppressing both ALK expression and ALK activity (ALK) | effect on ALK fusion protein levels, concentration dependence (NPM-ALK fusion protein; 16 h) | rescue of induced ALK fusion protein degradation by MG-132 and MLN4924 (NPM-ALK fusion protein) | significantly reduced ALK fusion protein levels (degraders vs negative controls) (NPM-ALK fusion protein; 16 h) | inhibition of cell viability (SU-DHL-1 cells) | Dmax at 0.5 µM (ALK fusion protein; 500 nM, Western blot) [%] | effect on EML4-ALK fusion protein levels, concentration dependence [1] | effect on NPM-ALK fusion protein levels, concentration dependence (NPM-ALK fusion protein; SU-DHL-1 cells, 1, 3, 10, 30 or 100 nM, 16 h)
1 | Cc1cc(Nc2ncc(Cl)c(Nc3ccccc3S(=O)(=O)C(C)C)n2)c(OC(C)C)cc1C1CCN(C(=O)COCCOCC(=O)N[C@H](C(=O)N2C[C@H](O)C[C@H]2C(=O)NCc2ccc(-c3scnc3C)cc2)C(C)(C)C)CC1 [CZ47-15, (2S,4R)-1-((S)-2-(2-(2-(2-(4-(4-((5-Chloro-4-((2-(isopropylsulfonyl)phenyl)amino)pyrimidin-2-yl)amino)-5-isopropoxy-2-methylphenyl)piperidin-1-yl)-2-oxoethoxy)ethoxy)acetamido)-3,3-dimethylbutanoyl)-4-hydroxy-N-(4-(4-methylthiazol-5-yl)benzyl)pyrrolidine-2-carboxamide] | concentration-dependently reduced | ++ (Protein degradation >80%) | significantly reduced | significantly inhibited | especially effective | concentration-dependently reduced | significantly rescued | significantly reduced | significantly inhibited |  |  | 
2 | Cc1cc(Nc2ncc(Cl)c(Nc3ccccc3S(=O)(=O)C(C)C)n2)c(OC(C)C)cc1C1CCN(C(=O)CCCC(=O)N[C@H](C(=O)N2C[C@H](O)C[C@H]2C(=O)NCc2ccc(-c3scnc3C)cc2)C(C)(C)C)CC1 [CZ47-23, (2S,4R)-1-((S)-2-(5-(4-(4-((5-Chloro-4-((2-(isopropylsulfonyl)phenyl)amino)pyrimidin-2-yl)amino)-5-isopropoxy-2-methylphenyl)piperidin-1-yl)-5-oxopentanamido)-3,3-dimethylbutanoyl)-4-hydroxy-N-(4-(4-methylthiazol-5-yl)benzyl)pyrrolidine-2-carboxamide] | concentration-dependently reduced |  | significantly reduced | significantly inhibited | especially effective | concentration-dependently reduced | significantly rescued | significantly reduced | significantly inhibited | > 80 |  | 
3 | Cc1cc(Nc2ncc(Cl)c(Nc3ccccc3S(=O)(=O)C(C)C)n2)c(OC(C)C)cc1C1CCN(C(=O)CCCCC(=O)N[C@H](C(=O)N2C[C@H](O)C[C@H]2C(=O)NCc2ccc(-c3scnc3C)cc2)C(C)(C)C)CC1 [CZ47-24, (2S,4R)-1-((S)-2-(6-(4-(4-((5-Chloro-4-((2-(isopropylsulfonyl)phenyl)amino)pyrimidin-2-yl)amino)-5-isopropoxy-2-methylphenyl)piperidin-1-yl)-6-oxohexanamido)-3,3-dimethylbutanoyl)-4-hydroxy-N-(4-(4-methylthiazol-5-yl)benzyl)pyrrolidine-2-carboxamide] | concentration-dependently reduced |  | significantly reduced | significantly inhibited | especially effective | concentration-dependently reduced | significantly rescued | significantly reduced | significantly inhibited | > 80 |  | 
4 | Cc1cc(Nc2ncc(Cl)c(Nc3ccccc3S(=O)(=O)C(C)C)n2)c(OC(C)C)cc1C1CCN(CC(=O)NCCOCCOCCOCCOCCOCCNc2cccc3c2C(=O)N(C2CCC(=O)N(C)C2=O)C3=O)CC1 (stereo not drawn) [CZ47-48, 2-(4-(4-((5-Chloro-4-((2-(isopropylsulfonyl)phenyl)amino)pyrimidin-2-yl)amino)-5-isopropoxy-2-methylphenyl)piperidin-1-yl)-N-(17-((2-(l-methyl-2,6-dioxopiperidin-3-yl)-1,3-dioxoisoindolin-4-yl)amino)-3,6,9,12,15-pentaoxaheptadecyl)acetamide] |  |  |  |  |  |  |  |  |  | < 20 | no significant effect | no significant effect
5 | Cc1cc(Nc2ncc(Cl)c(Nc3ccccc3S(=O)(=O)C(C)C)n2)c(OC(C)C)cc1C1CCN(C(=O)COCCOCC(=O)N[C@H](C(=O)N2C[C@H](O)C[C@H]2C(=O)N[C@@H](C)c2ccc(-c3scnc3C)cc2)C(C)(C)C)CC1 [HC58-98, (2S,4R)-1-((S)-2-(2-(2-(2-(4-(4-((5-Chloro-4-((2-(isopropylsulfonyl)phenyl)amino)pyrimidin-2-yl)amino)-5-isopropoxy-2-methylphenyl)piperidin-1-yl)-2-oxoethoxy)ethoxy)acetamido)-3,3-dimethylbutanoyl)-4-hydroxy-N—((S)-1-(4-(4-methylthiazol-5-yl)phenyl)ethyl)pyrrolidine-2-carboxamide] | concentration-dependently reduced |  |  | significantly inhibited | especially effective | concentration-dependently reduced |  |  | significantly inhibited | > 80 |  | 
6 | Cc1cc(Nc2ncc(Cl)c(Nc3ccccc3S(=O)(=O)C(C)C)n2)c(OC(C)C)cc1C1CCN(C(=O)CCCC(=O)N[C@H](C(=O)N2C[C@H](O)C[C@H]2C(=O)N[C@@H](C)c2ccc(-c3scnc3C)cc2)C(C)(C)C)CC1 [HC58-99, (2S,4R)-1-((S)-2-(5-(4-(4-((5-Chloro-4-((2-(isopropylsulfonyl)phenyl)amino)pyrimidin-2-yl)amino)-5-isopropoxy-2-methylphenyl)piperidin-1-yl)-5-oxopentanamido)-3,3-dimethylbutanoyl)-4-hydroxy-N—((S)-1-(4-(4-methylthiazol-5-yl)phenyl)ethyl)pyrrolidine-2-carboxamide] | concentration-dependently reduced |  |  | significantly inhibited | especially effective | concentration-dependently reduced |  |  | significantly inhibited | > 80 |  | 
